Species on record: Rattus norvegicus
Experiment: DrugMatrix - Regimen: Daily Repeat
Assay type: toxicity, organism-based, Sprague-Dawley
Parameters: regimen Daily Repeat, gender Male, age 6-8 weeks
Details: in vivo, po, route oral GAVAGE, vehicle .5 % CMC; for ABSOLUTE EOSINOPHIL / ABSOLUTE LYMPHOCYTE / ABSOLUTE MONOCYTE / ABSOLUTE SEGMENTED NEUTROPHIL / BASOPHIL / EOSINOPHIL / ERYTHROCYTE COUNT / HEMATOCRIT / HEMOGLOBIN / LEUKOCYTE COUNT / LYMPHOCYTE / MEAN CORPUSCULAR HEMOGLOBIN CONCENTRATION / MEAN CORPUSCULAR VOLUME / MONOCYTE / NEUTROPHIL / NUCLEATED RED BLOOD CELLS / PLATELET COUNT / ABSOLUTE BASOPHIL: tissue Blood; for ALANINE AMINOTRANSFERASE / ALBUMIN / ALKALINE PHOSPHATASE / BLOOD UREA NITROGEN / CARBON DIOXIDE / CHLORIDE / CHOLESTEROL / CREATINE PHOSPHOKINASE / CREATININE / GLUCOSE / LACTATE DEHYDROGENASE / LIPASE / PHOSPHORUS / POTASSIUM / SODIUM / TOTAL BILIRUBIN / TOTAL PROTEIN: tissue Plasma
[1] = 60 mg/kg, 120 h, dose level High, time 5 day
[2] = […], 72 h, dose 1.5 mg/Kg, dose level Low, time 3 day
[3] = […], 120 h, dose 1.5 mg/Kg, dose level Low, time 5 day

## CO[C@H]1C[C@@H]2CC[C@@H](C)[C@@](O)(O2)C(=O)C(=O)N2CCCC[C@H]2C(=O)O[C@H]([C@H](C)C[C@@H]2CC[C@@H](O)[C@H](OC)C2)CC(=O)[C@H](C)/C=C(\C)[C@@H](O)[C@@H](OC)C(=O)[C@H](C)C[C@H](C)/C=C/C=C/C=C/1C [SIROLIMUS]
[1]
  ABSOLUTE EOSINOPHIL: 0 CELLS/uL
  ABSOLUTE LYMPHOCYTE: 6680.33 CELLS/uL
  ABSOLUTE MONOCYTE: 49.67 CELLS/uL
  ABSOLUTE SEGMENTED NEUTROPHIL: 670 CELLS/uL
  BASOPHIL: 0%
  EOSINOPHIL: 0%
  ERYTHROCYTE COUNT: 6.63 x10E6/uL
  HEMATOCRIT: 40%
  HEMOGLOBIN: 15.77 G/DL
  LEUKOCYTE COUNT: 7.4 x10E3/uL
  LYMPHOCYTE: 90.33%
  MEAN CORPUSCULAR HEMOGLOBIN CONCENTRATION: 39.4 G/DL
  MEAN CORPUSCULAR VOLUME: 60.43 fL
  MONOCYTE: 0.67%
  NEUTROPHIL: 9%
  NUCLEATED RED BLOOD CELLS: 0 /100WBC
  PLATELET COUNT: 709.33 x10E3/uL
  ALANINE AMINOTRANSFERASE: 49.33 u/L
  ALBUMIN: 4.2 G/DL
  ALKALINE PHOSPHATASE: 311.67 u/L
  BLOOD UREA NITROGEN: 20.67 mg/dL
  CARBON DIOXIDE: 28.33 mmol/L
  CHLORIDE: 99.67 MEQ/L
  CHOLESTEROL: 81.67 mg/dL
  CREATINE PHOSPHOKINASE: 479 u/L
  CREATININE: 0.24 mg/dL
  GLUCOSE: 202.33 mg/dL
  LACTATE DEHYDROGENASE: 231.33 u/L
  LIPASE: 9.67 u/L
  PHOSPHORUS: 10.43 mg/dL
  POTASSIUM: 4.97 MEQ/L
  SODIUM: 145.27 MEQ/L
  TOTAL BILIRUBIN: 0.2 mg/dL
  TOTAL PROTEIN: 6.23 G/DL
[2]
  ABSOLUTE BASOPHIL: 0 CELLS/uL
  ABSOLUTE EOSINOPHIL: 267 CELLS/uL
  ABSOLUTE LYMPHOCYTE: 13791 CELLS/uL
  ABSOLUTE MONOCYTE: 267 CELLS/uL
  ABSOLUTE SEGMENTED NEUTROPHIL: 1575 CELLS/uL
  BASOPHIL: 0%
  EOSINOPHIL: 1.67%
  ERYTHROCYTE COUNT: 5.63 x10E6/uL
  HEMATOCRIT: 36.33%
  HEMOGLOBIN: 13.8 G/DL
  LEUKOCYTE COUNT: 15.9 x10E3/uL
  LYMPHOCYTE: 87%
  MEAN CORPUSCULAR HEMOGLOBIN CONCENTRATION: 38 G/DL
  MEAN CORPUSCULAR VOLUME: 64.5 fL
  MONOCYTE: 1.67%
  NEUTROPHIL: 9.67%
  NUCLEATED RED BLOOD CELLS: 0 /100WBC
  PLATELET COUNT: 1156 x10E3/uL
  ALANINE AMINOTRANSFERASE: 52.33 u/L
  ALBUMIN: 4.23 G/DL
  ALKALINE PHOSPHATASE: 361.33 u/L
  BLOOD UREA NITROGEN: 17.33 mg/dL
  CARBON DIOXIDE: 27.33 mmol/L
  CHLORIDE: 99 MEQ/L
  CHOLESTEROL: 79.33 mg/dL
  CREATINE PHOSPHOKINASE: 205.33 u/L
  CREATININE: 0.21 mg/dL
  GLUCOSE: 162 mg/dL
  LACTATE DEHYDROGENASE: 201.67 u/L
  LIPASE: 10 u/L
  PHOSPHORUS: 12.33 mg/dL
  POTASSIUM: 6.49 MEQ/L
  SODIUM: 144 MEQ/L
  TOTAL BILIRUBIN: 0.2 mg/dL
  TOTAL PROTEIN: 6 G/DL
[3]
  ABSOLUTE BASOPHIL: 0 CELLS/uL
  ABSOLUTE EOSINOPHIL: 0 CELLS/uL
  ABSOLUTE LYMPHOCYTE: 12718.33 CELLS/uL
  ABSOLUTE MONOCYTE: 96 CELLS/uL
  ABSOLUTE SEGMENTED NEUTROPHIL: 1619 CELLS/uL
  BASOPHIL: 0%
  EOSINOPHIL: 0%
  ERYTHROCYTE COUNT: 5.45 x10E6/uL
  HEMATOCRIT: 33.87%
  HEMOGLOBIN: 13.8 G/DL
  LEUKOCYTE COUNT: 14.43 x10E3/uL
  LYMPHOCYTE: 87.67%
  MEAN CORPUSCULAR HEMOGLOBIN CONCENTRATION: 40.77 G/DL
  MEAN CORPUSCULAR VOLUME: 62.2 fL
  MONOCYTE: 0.67%
  NEUTROPHIL: 11.67%
  NUCLEATED RED BLOOD CELLS: 0 /100WBC
  PLATELET COUNT: 1286.33 x10E3/uL
  ALANINE AMINOTRANSFERASE: 92.33 u/L
  ALBUMIN: 3.8 G/DL
  ALKALINE PHOSPHATASE: 328.67 u/L
  BLOOD UREA NITROGEN: 17.33 mg/dL
  CARBON DIOXIDE: 20.33 mmol/L
  CHLORIDE: 99 MEQ/L
  CHOLESTEROL: 66.67 mg/dL
  CREATINE PHOSPHOKINASE: 1089 u/L
  CREATININE: 0.25 mg/dL
  GLUCOSE: 251.33 mg/dL
  LACTATE DEHYDROGENASE: 725.33 u/L
  LIPASE: 11 u/L
  PHOSPHORUS: 14.07 mg/dL
  POTASSIUM: 6.17 MEQ/L
  SODIUM: 142.93 MEQ/L
  TOTAL BILIRUBIN: 0.2 mg/dL
  TOTAL PROTEIN: 5.43 G/DL
